Reference: ChEMBL document CHEMBL1147193, “New 5-substituted thiazolo[3,2-b][1,2,4]triazol-6-ones: synthesis and anticancer evaluation” (2007)

Tests used:
Type in all cases: functional
[1] = tested on: OVCAR-4; experiment: Growth inhibition of human OVCAR4 cells after 48 hrs by SRB protein assay; conditions: OVCAR-4, 48 h; for TGI: read-out: Log TGI (converted)
[2] = tested on: OVCAR-5; experiment: Growth inhibition of human OVCAR5 cells after 48 hrs by SRB protein assay; conditions: OVCAR-5, 48 h; for TGI: read-out: Log TGI (converted)
[3] = tested on: OVCAR-8; experiment: Growth inhibition of human OVCAR8 cells after 48 hrs by SRB protein assay; conditions: OVCAR-8, 48 h; for TGI: read-out: Log TGI (converted)
[4] = tested on: SK-OV-3; experiment: Growth inhibition of human SK-OV-3 cells after 48 hrs by SRB protein assay; conditions: SK-OV-3, 48 h; for TGI: read-out: Log TGI (converted)
[5] = tested on: 786-0; experiment: Growth inhibition of human 786-0 cells after 48 hrs by SRB protein assay; conditions: 786-0, 48 h; for TGI: read-out: Log TGI (converted)
[6] = tested on: ACHN; experiment: Growth inhibition of human ACHN cells after 48 hrs by SRB protein assay; conditions: for TGI: read-out: Log TGI (converted)
[7] = tested on: A549; experiment: Growth inhibition of human A549/ATCC cells after 48 hrs by SRB protein assay; conditions: A549, 48 h; for TGI: read-out: Log TGI (converted)
[8] = tested on: IGROV-1; experiment: Growth inhibition of human IGROV1 cells after 48 hrs by SRB protein assay; conditions: IGROV-1, 48 h; for TGI: read-out: Log TGI (converted)
[9] = tested on: SW-620; experiment: Growth inhibition of human SW620 cells after 48 hrs by SRB protein assay; conditions: SW-620, 48 h; for TGI: read-out: Log TGI (converted)
[10] = tested on: Hs-578T; experiment: Growth inhibition of human HS578T cells after 48 hrs by SRB protein assay; conditions: for TGI: read-out: Log TGI (converted)
[11] = tested on: RPMI-8226; experiment: Growth inhibition of human RPMI8226 cells after 48 hrs by SRB protein assay; conditions: RPMI-8226, 48 h; for TGI: read-out: Log TGI (converted)
[12] = tested on: NCI-H460; experiment: Anticancer activity against human NCI-H460 cells assessed as growth of cells at 100 uM relative to untreated cells
[13] = tested on: SF-268; experiment: Anticancer activity against human SF268 cells assessed as growth of cells at 100 uM relative to untreated cells
[14] = tested on: MOLT-4; experiment: Growth inhibition of human MOLT4 cells after 48 hrs by SRB protein assay; conditions: MOLT-4, 48 h; for TGI: read-out: Log TGI (converted)
[15] = tested on: HOP-62; experiment: Growth inhibition of human HOP62 cells after 48 hrs by SRB protein assay; conditions: HOP-62, 48 h; for TGI: read-out: Log TGI (converted)
[16] = tested on: HOP-92; experiment: Growth inhibition of human HOP92 cells after 48 hrs by SRB protein assay; conditions: HOP-92, 48 h; for TGI: read-out: Log TGI (converted)
[17] = tested on: NCI-H226; experiment: Growth inhibition of human NCI-H226 cells after 48 hrs by SRB protein assay; conditions: NCI-H226, 48 h; for TGI: read-out: Log TGI (converted)
[18] = tested on: NCI-H460; experiment: Growth inhibition of human NCI-H460 cells after 48 hrs by SRB protein assay; conditions: NCI-H460, 48 h; for TGI: read-out: Log TGI (converted)
[19] = tested on: NCI-H522; experiment: Growth inhibition of human NCI-H522 cells after 48 hrs by SRB protein assay; conditions: NCI-H522, 48 h; for TGI: read-out: Log TGI (converted)
[20] = tested on: HCC 2998; experiment: Growth inhibition of human HCC2998 cells after 48 hrs by SRB protein assay; conditions: HCC 2998, 48 h; for TGI: read-out: Log TGI (converted)
[21] = tested on: HCT-116; experiment: Growth inhibition of human HCT116 cells after 48 hrs by SRB protein assay; conditions: HCT-116, 48 h; for TGI: read-out: Log TGI (converted)
[22] = tested on: HCT-15; experiment: Growth inhibition of human HCT15 cells after 48 hrs by SRB protein assay; conditions: HCT-15, 48 h; for TGI: read-out: Log TGI (converted)
[23] = tested on: SF-295; experiment: Growth inhibition of human SF295 cells after 48 hrs by SRB protein assay; conditions: SF-295, 48 h; for TGI: read-out: Log TGI (converted)
[24] = tested on: LOX IMVI; experiment: Growth inhibition of human LOX IMVI cells after 48 hrs by SRB protein assay; conditions: for TGI: read-out: Log TGI (converted)
[25] = Growth inhibition of human MALME 3M cells after 48 hrs by SRB protein assay; conditions: for TGI: read-out: Log TGI (converted)
[26] = tested on: M14; experiment: Growth inhibition of human M14 cells after 48 hrs by SRB protein assay; conditions: M14, 48 h; for TGI: read-out: Log TGI (converted)
[27] = tested on: SK-MEL-2; experiment: Growth inhibition of human SK-MEL-2 cells after 48 hrs by SRB protein assay; conditions: SK-MEL-2, 48 h; for TGI: read-out: Log TGI (converted)
[28] = tested on: SK-MEL-28; experiment: Growth inhibition of human SK-MEL-28 cells after 48 hrs by SRB protein assay; conditions: SK-MEL-28, 48 h; for TGI: read-out: Log TGI (converted)
[29] = tested on: SK-MEL-5; experiment: Growth inhibition of human SK-MEL-5 cells after 48 hrs by SRB protein assay; conditions: SK-MEL-5, 48 h; for TGI: read-out: Log TGI (converted)
[30] = tested on: UACC-257; experiment: Growth inhibition of human UACC257 cells after 48 hrs by SRB protein assay; conditions: UACC-257, 48 h; for TGI: read-out: Log TGI (converted)
[31] = tested on: UACC-62; experiment: Growth inhibition of human UACC62 cells after 48 hrs by SRB protein assay; conditions: UACC-62, 48 h; for TGI: read-out: Log TGI (converted)
[32] = tested on: RXF 393; experiment: Growth inhibition of human RXF393 cells after 48 hrs by SRB protein assay; conditions: RXF 393, 48 h; for TGI: read-out: Log TGI (converted)
[33] = tested on: TK-10; experiment: Growth inhibition of human TK10 cells after 48 hrs by SRB protein assay; conditions: TK-10, 48 h; for TGI: read-out: Log TGI (converted)
[34] = tested on: UO-31; experiment: Growth inhibition of human UO31 cells after 48 hrs by SRB protein assay; conditions: UO-31, 48 h; for TGI: read-out: Log TGI (converted)
[35] = tested on: SN12C; experiment: Growth inhibition of human SN12C cells after 48 hrs by SRB protein assay; conditions: for TGI: read-out: Log TGI (converted)
[36] = tested on: PC-3; experiment: Growth inhibition of human PC3 cells after 48 hrs by SRB protein assay; conditions: PC-3, 48 h; for TGI: read-out: Log TGI (converted)
[37] = tested on: MCF7; experiment: Growth inhibition of human MCF7 cells after 48 hrs by SRB protein assay; conditions: MCF7, 48 h; for TGI: read-out: Log TGI (converted)
[38] = tested on: NCI/ADR-RES; experiment: Growth inhibition of human NCI/ADR-RES cells after 48 hrs by SRB protein assay; conditions: for TGI: read-out: Log TGI (converted)
[39] = tested on: CCRF-CEM; experiment: Growth inhibition of human CCRF-CEM cells after 48 hrs by SRB protein assay

O=c1/c(=C/c2ccc(F)cc2)sc2ncnn12
GI50 [1]: 34.7 µM
TGI [1]: > 100 µM
GI50 [2]: 55 µM
TGI [2]: > 100 µM
GI50 [3]: 44.7 µM
TGI [3]: > 100 µM
GI50 [4]: > 100 µM
TGI [4]: > 100 µM
GI50 [5]: 51.3 µM
TGI [5]: > 100 µM
GI50 [6]: 81.3 µM
TGI [6]: > 100 µM
GI50 [7]: 87.1 µM
TGI [7]: > 100 µM
GI50 [8]: 57.5 µM
TGI [8]: > 100 µM
GI50 [9]: 66.1 µM
TGI [9]: > 100 µM
GI50 [10]: 69.2 µM
TGI [10]: > 100 µM
GI50 [11]: 26.3 µM
TGI [11]: 79.4 µM
Activity [12]: 13%
Activity [13]: 70%
GI50 [14]: 38.9 µM
TGI [14]: > 100 µM
GI50 [15]: 70.8 µM
TGI [15]: > 100 µM
GI50 [16]: 47.9 µM
TGI [16]: > 100 µM
GI50 [17]: > 100 µM
TGI [17]: > 100 µM
GI50 [18]: 61.7 µM
TGI [18]: > 100 µM
GI50 [19]: 50.1 µM
TGI [19]: > 100 µM
GI50 [20]: 63.1 µM
TGI [20]: > 100 µM
GI50 [21]: 33.9 µM
TGI [21]: > 100 µM
GI50 [22]: 63.1 µM
TGI [22]: > 100 µM
GI50 [23]: 52.5 µM
TGI [23]: > 100 µM
GI50 [24]: 37.2 µM
TGI [24]: > 100 µM
GI50 [25]: > 100 µM
TGI [25]: > 100 µM
GI50 [26]: 28.8 µM
TGI [26]: > 100 µM
GI50 [27]: > 100 µM
TGI [27]: 51.3 µM
GI50 [28]: 52.5 µM
TGI [28]: > 100 µM
GI50 [29]: 41.7 µM
TGI [29]: > 100 µM
GI50 [30]: 95.5 µM
TGI [30]: > 100 µM
GI50 [31]: 66.1 µM
TGI [31]: > 100 µM
GI50 [32]: 46.8 µM
TGI [32]: 100 µM
GI50 [33]: > 100 µM
TGI [33]: > 100 µM
GI50 [34]: 69.2 µM
TGI [34]: > 100 µM
GI50 [35]: 40.7 µM
TGI [35]: > 100 µM
GI50 [36]: 53.7 µM
TGI [36]: > 100 µM
GI50 [37]: 32.4 µM
TGI [37]: > 100 µM
GI50 [38]: 38 µM
TGI [38]: > 100 µM

COc1ccc(NC(=O)CC2Sc3ncnn3C2=O)cc1 (stereo not given)
GI50 [1]: 57.5 µM
TGI [1]: > 100 µM
GI50 [2]: 18.2 µM
TGI [2]: 32.4 µM
GI50 [3]: 22.4 µM
TGI [3]: 46.8 µM
GI50 [4]: > 100 µM
TGI [4]: > 100 µM
GI50 [5]: 16.6 µM
TGI [5]: 30.9 µM
GI50 [6]: 21.4 µM
TGI [6]: 47.9 µM
GI50 [7]: 61.7 µM
TGI [7]: > 100 µM
GI50 [8]: 67.6 µM
TGI [8]: > 100 µM
GI50 [39]: 20.4 µM
TGI ([39]; read-out: Log TGI (converted)): 41.7 µM
GI50 [9]: 37.2 µM
TGI [9]: > 100 µM
GI50 [10]: 25.7 µM
TGI [10]: 44.7 µM
GI50 [11]: 25.1 µM
TGI [11]: 64.6 µM
Activity [12]: 0%
Activity [13]: 107%
GI50 [14]: 28.8 µM
TGI [14]: 70.8 µM
GI50 [15]: > 100 µM
TGI [15]: > 100 µM
GI50 [16]: 21.9 µM
TGI [16]: 49 µM
GI50 [17]: 22.9 µM
TGI [17]: 42.7 µM
GI50 [18]: > 100 µM
TGI [18]: > 100 µM
GI50 [19]: 19.5 µM
TGI [19]: 43.7 µM
GI50 [20]: > 100 µM
TGI [20]: > 100 µM
GI50 [21]: 17 µM
TGI [21]: 30.9 µM
GI50 [22]: 24.5 µM
TGI [22]: 52.5 µM
GI50 [23]: > 100 µM
TGI [23]: > 100 µM
GI50 [24]: 21.9 µM
TGI [24]: 42.7 µM
GI50 [25]: 17.4 µM
TGI [25]: 33.9 µM
GI50 [26]: 18.2 µM
TGI [26]: 33.9 µM
GI50 [27]: > 100 µM
TGI [27]: > 100 µM
GI50 [28]: 26.9 µM
TGI [28]: > 57.5 µM
GI50 [29]: 17.4 µM
TGI [29]: 35.5 µM
GI50 [30]: 20 µM
TGI [30]: 36.3 µM
GI50 [31]: > 100 µM
TGI [31]: > 100 µM
GI50 [32]: 15.5 µM
TGI [32]: 41.7 µM
GI50 [33]: 16.6 µM
TGI [33]: 30.9 µM
GI50 [34]: 23.4 µM
TGI [34]: 53.7 µM
GI50 [35]: 25.1 µM
TGI [35]: 56.2 µM
GI50 [36]: 23.4 µM
TGI [36]: 56.2 µM
GI50 [37]: 25.1 µM
TGI [37]: 64.6 µM
GI50 [38]: 31.6 µM
TGI [38]: > 100 µM
